Test results from patent US12313613B2, “Method of testing crystallinity in amorphous pharmaceutical compositions” (ColVisTec AG, priority 2019, dated 2025).

What was measured:
Type in all cases: physicochemical
[1] = Off-line XRD crystallinity detection of PRX / Kollidon VA64 mixtures (Bruker instrument); details: in Kollidon VA64, milled samples, no crystallinity detected at 25 wt %
Method: The samples were analysed by a UV/vis spectrometer in transmission mode (FIG. 1) and an XRD spectrum of the same samples was also obtained for comparison and verification (FIG. 2). The XRD samples required milling and analysis offline whereas UV/vis has the advantages that it can be performed rapidly in-line without milling.
XRD spectra were obtained on a Bruker instrument for each of pure solid PRX, Kollidon VA64, and 20, 25 and 30 wt % PRX mixtures separately. […] Only at 30 wt % PRX loading, well above the maximum solubility when there is substantially higher crystallinity, does the XRD spectra first show peaks that correlate with the pure XRD spectra of PRX.

[2] = In-line UV/vis transmission crystallinity detection of piroxicam in Kollidon VA64 (solubility maximum, twin-screw extruder); details: in Kollidon VA64, hot melt extrusion, amorphous, homogeneous and transparent below this loading
Description: A twin-screw extruder was used to assess the solubility maximum for a mixture of the non-steroidal anti-inflammatory drug (NSAID) piroxicam (PRX) and the carrier polymer Kollidon VA64. The mixture was continuously analysed while traversing the extruder screw using a system of in-line UV/vis spectrometers and the input of the PRX was adjusted until crystallinity was first detected.
UV/vis transmission spectra were obtained for 15, 18, 20, 23 and 25 wt % PRX samples.

[3] = Particle size distribution of the components (Mastersizer laser diffraction)
Method: In some cases, the particle size of the dispersion or solution is measured prior to being subjected to UV/vis spectroscopy. Known methods of sizing the dispersion or solution include sieve analysis, direct imaging and laser diffraction. In the present disclosure, a Mastersizer (Malvern Instruments) laser diffraction device was used.

PRX loading at which XRD spectra first show peaks of crystalline PRX [1]	PRX loading at which the first microcrystalline domains are observed (solubility maximum in carrier) [2]	D10 [3]	D50 [3]	D90 [3]	SMILES
30 wt %	25 wt %	–	–	–	CN1C(C(=O)Nc2ccccn2)=C(O)c2ccccc2S1(=O)=O [PRX, 4-hydroxy-2-methyl-1,1-dioxo-N-pyridin-2-yl-1$1^6,2-benzothiazine-3-carboxamide]
–	–	8 μm	26 μm	87 μm	Cc1cc(C#N)cc(C)c1Oc1nc(Nc2ccc(C#N)cc2)nc(N)c1Br [crystalline etravirine (ETR), 4-[6-amino-5-bromo-2-(4-cyanoanilino)pyrimidin-4-yl]oxy-3,5-dimethylbenzonitrile]
